Earlier results in patent US20140314667A1, “METHODS OF TREATING EPIDERMAL GROWTH FACTOR DELETION MUTANT VIII RELATED DISORDERS” (AMGEN INC., priority 2011, published 2014).

Experiments:
[1] = system: L1210 cells; conditions: Sieber et al.; untreated control mitotic index 3.2 to 5.8%; cited from earlier work
[2] = system: P388, L1210, and LY5178 murine leukemic cell suspensions; conditions: in vitro; cited from earlier work
[3] = system: human acute lymphoblastic leukemia line CEM; conditions: in vitro, Wolpert-DeFillippes et al.; cited from earlier work
[4] = system: P388 lymphocytic leukemia system; conditions: Kupchan 1974; cited from earlier work
[5] = system: L1210 mouse leukemia system, the human Lewis lung carcinoma system and the human B-16 melanocarcinoma system; conditions: Kupchan 1974; cited from earlier work
[6] = U.S. Pat. No. 3,896,111; cited from earlier work

## COc1cc2cc(c1Cl)N(C)C(=O)C[C@H](OC(=O)[C@H](C)N(C)C(C)=O)[C@]1(C)O[C@H]1[C@H](C)[C@@H]1C[C@@](O)(NC(=O)O1)[C@H](OC)/C=C/C=C(\C)C2 [Maytansine]
[1]
  cells accumulating in mitosis: 67%
[2]
  inhibitory doses: 10^−3 to 10^−1 µg/µl
[3]
  inhibitory concentration: ≥ 10^−7 mg/ml
[4]
  dosage range over which tumor growth was inhibited: 50- to 100 fold
[5]
  inhibitory activity: significant inhibitory activity
[6]
  more cytotoxic than conventional cancer chemotherapeutic agents like methotrexate, daunorubicin, and vincristine: 100 to 1000 fold
